The numbers were not newly measured in US20110081780A1, “AQUEOUS DISPERSION FOR CHEMICAL MECHANICAL POLISHING AND CHEMICAL MECHANICAL POLISHING METHOD” (JSR CORPORATION, priority 2008, published 2011), which cites them from elsewhere.

The conditions of the first data set: 25° C.; second carboxyl group if two carboxyl groups, third if three or more.
With `O=C(O)[C@@H]1CCCCC[C@H]1C(=O)O` (relative stereo) [1,2-Cycloheptanedicarboxylic acid (trans)], the pKa (usually the pH at which an ionisable group is half protonated) is given as 6.18.

Consider `O=C(O)[C@@H]1CCCCCC[C@H]1C(=O)O` (relative stereo) [1,2-Cyclooctanedicarboxylic acid (trans)], for which the pKa is reported as 6.24.

Take `O=C(O)[C@H]1CCCCC[C@H]1C(=O)O` [1,2-Cycloheptanedicarboxylic acid (cis)]: the pKa was 7.60.

As to `O=C(O)[C@H]1CCCCCC[C@H]1C(=O)O` [1,2-Cyclooctanedicarboxylic acid (cis)], the pKa was 7.34.

For `CCC(CC)(C(=O)O)C(=O)O` [2,2-Diethylmalonic acid], the pKa is 7.42.

For the compound `CC(C)C(C(=O)O)(C(=O)O)C(C)C` [2,2-Diisopropylmalonic acid], the pKa was 8.85.

On to `CC(C)(C)C(C(=O)O)C(C(=O)O)C(C)(C)C` (stereo not drawn) [2,3-Di-t-butylsuccinic acid], for which the pKa is given as 10.26.

As for `CCC(C(=O)O)C(CC)C(=O)O` (stereo not drawn) [2,3-Diethylsuccinic acid], the pKa was 6.46.

As for `CC(C(=O)O)C(C)C(=O)O` (stereo not drawn) [2,3-Dimethylsuccinic acid], the pKa is 6.00.

Regarding `CCC(CC)C(CC)(CCC(=O)O)C(=O)O` (stereo not drawn) [2-Ethyl-2-(1-ethylpropyl)glutaric acid], the pKa is recorded as 7.31.

Consider `CCC(C)(C(=O)O)C(=O)O` [2-Ethyl-2-methylmalonic acid], for which the pKa is listed as 6.55.

For the compound `CCC(C(=O)O)C(C)C(=O)O` (stereo not drawn) [2-Ethyl-3-methylsuccinic acid], the pKa is 6.10.

As to `CCC(C(=O)O)C(=O)O` [2-Ethylmalonic acid], the pKa is 5.81.

Consider `CC(C)C(C(=O)O)C(=O)O` [2-Isopropylmalonic acid], for which the pKa is on record as 5.88.

As to `CC1CCCCC1(CC(=O)O)CC(=O)O` (stereo not drawn) [2-Methylcyclohexyl-1,1-diacetic acid], the pKa is on record as 6.89.

For the compound `CC(C(=O)O)C(=O)O` [2-Methylmalonic acid], the pKa is 5.76.

As to `CCC(CC)(CC(=O)O)CC(=O)O` [3,3-Diethylglutaric acid], the pKa is given as 7.42.

On to `CC(C)C(CC(=O)O)(CC(=O)O)C(C)C` [3,3-Diisopropylglutaric acid], for which the pKa is reported as 7.68.

As for `CC(C)(CC(=O)O)CC(=O)O` [3,3-Dimethylglutaric acid], the pKa is given as 6.45.

Turning to `CCCC(CCC)(CC(=O)O)CC(=O)O` [3,3-Dipropylglutaric acid], the pKa is reported as 7.48.

On to `CCC(CC(=O)O)(CC(=O)O)c1ccccc1` [3-Ethyl-3-phenylglutaric acid], for which the pKa is on record as 6.95.

Regarding `CC(C)C(C)(CC(=O)O)CC(=O)O` [3-Isopropyl-3-methylglutaric acid], the pKa was 6.92.

Regarding `CCC(C)(CC(=O)O)CC(=O)O` [3-Methyl-3-ethylglutaric acid], the pKa is 6.70.

On to `CC(CC(=O)O)(CC(=O)O)c1ccccc1` [3-Methyl-3-phenylglutaric acid], for which the pKa was 6.17.

With `CC(C)(C)C(C)(CC(=O)O)CC(=O)O` [3-t-Butyl-3-methylglutaric acid], the pKa is reported as 7.49.

On to `O=C(O)CC1(CC(=O)O)CCCCC1` [Cyclohexyl-1,1-diacetic acid], for which the pKa was 7.08.

In the case of `O=C(O)CC1(CC(=O)O)CCCC1` [Cyclopentyl-1,1-diacetic acid], the pKa is reported as 6.77.

`O=C(O)CC(C(=O)O)c1ccccc1` (stereo not drawn) [Phenylsuccinic acid]: the pKa is on record as 5.55.

`CC(C)(C(=O)O)C(C)(C)C(=O)O` [Tetramethylsuccinic acid]: the pKa is reported as 7.41.

Regarding `O=C(O)c1cccc(O)c1` [m-Hydroxvbenzoic acid], the pKa is reported as 9.96.

With `O=C(O)c1ccc(O)cc1` [p-Hydroxybenzoic acid], the pKa was 9.46.

The conditions of another data set: commercially available products.
On to “2,4,7,9-tetramethyl-5-decyne-4,7-diol-dipolyoxyethylene ethers [Surfynol 465]”, for which the HLB value is recorded as 13.

Consider “2,4,7,9-tetramethyl-5-decyne-4,7-diol-dipolyoxyethylene ethers [Surfynol 485]”, for which the HLB value is reported as 17.
